The source of these data is PubChem BioAssay AID1259407 (Chemical Carcinogenesis Research Information System (CCRIS), 2018).

Active and inactive are the calls of the source. The rule behind the calls is not given here.

The data set deals with CCRIS mutagenicity, Ames/micronucleus/aberration tests. The data set is described as follows: CCRIS mutagenicity studies.
Where [1] appears, read: Test System: AMES SALMONELLA TYPHIMURIUM, Strain/Indicator: TA100, Metabolic Activation: HAMSTER, LIVER, S-9, AROCLOR 1254 (30%), Method: PREINCUBATION
[2] abbreviates: Test System: AMES SALMONELLA TYPHIMURIUM, Strain/Indicator: TA100, Metabolic Activation: NONE, Method: PREINCUBATION
[3] abbreviates: Test System: AMES SALMONELLA TYPHIMURIUM, Strain/Indicator: TA100, Metabolic Activation: RAT, LIVER, S-9, AROCLOR 1254 (30%), Method: PREINCUBATION
[4] abbreviates: Test System: AMES SALMONELLA TYPHIMURIUM, Strain/Indicator: TA1535, Metabolic Activation: NONE, Method: PREINCUBATION
The mark [5] stands for this setting: Test System: AMES SALMONELLA TYPHIMURIUM, Strain/Indicator: TA98, Metabolic Activation: NONE, Method: PREINCUBATION
[6] abbreviates: Test System: AMES SALMONELLA TYPHIMURIUM, Strain/Indicator: TA97, Metabolic Activation: NONE, Method: STANDARD PLATE.
Where [7] appears, read: Test System: AMES SALMONELLA TYPHIMURIUM, Strain/Indicator: TA97, Metabolic Activation: RAT, LIVER, S-9, AROCLOR 1254, Method: STANDARD PLATE.
[8] abbreviates: Test System: AMES SALMONELLA TYPHIMURIUM, Strain/Indicator: TA98, Metabolic Activation: NONE, Method: STANDARD PLATE.
Setting [9] is: Test System: AMES SALMONELLA TYPHIMURIUM, Strain/Indicator: TA98, Metabolic Activation: RAT, LIVER, S-9, AROCLOR 1254, Method: STANDARD PLATE.
Setting [10] is: Test System: AMES SALMONELLA TYPHIMURIUM, Strain/Indicator: TA100, Metabolic Activation: NONE, Method: STANDARD PLATE.
[11] abbreviates: Test System: AMES SALMONELLA TYPHIMURIUM, Strain/Indicator: TA100, Metabolic Activation: RAT, LIVER, S-9, AROCLOR 1254, Method: STANDARD PLATE.

As to `O=C(OCC1CO1)C1CCCCC1C(=O)OCC1CO1` (configuration not stated), the mutagenic call is “active; positive” under setting [1]; “active; positive” under setting [2]; “active; positive” under setting [3]; “active; positive” (Test System: AMES SALMONELLA TYPHIMURIUM, Strain/Indicator: TA1535, Metabolic Activation: HAMSTER, LIVER, S-9, AROCLOR 1254 (30%), Method: PREINCUBATION); “active; positive” under setting [4]; “active; positive” (Test System: AMES SALMONELLA TYPHIMURIUM, Strain/Indicator: TA1535, Metabolic Activation: RAT, LIVER, S-9, AROCLOR 1254 (30%), Method: PREINCUBATION).

As to `O=C(O)CC[N+](=O)[O-]`, the mutagenic call is, setting by setting: (Test System: AMES SALMONELLA TYPHIMURIUM, Strain/Indicator: TA98, Metabolic Activation: HAMSTER, LIVER, S-9, AROCLOR 1254 (30%), Method: PREINCUBATION) “inactive; negative”; under setting [5], “inactive; negative”; (Test System: AMES SALMONELLA TYPHIMURIUM, Strain/Indicator: TA98, Metabolic Activation: RAT, LIVER, S-9, AROCLOR 1254 (30%), Method: PREINCUBATION) “inactive; negative”; under setting [1], “active; positive”; under setting [2], “active; positive”; under setting [3], “active; positive”. The mutagenic call by setting is: (Test System: CHINESE HAMSTER OVARY, Strain/Indicator: CHO-K1-BH4 (HGPRT)/6-THIOGUANINE, Metabolic Activation: NONE) “inactive; negative”; (Test System: CHINESE HAMSTER OVARY, Strain/Indicator: CHO-K1-BH4 (HGPRT)/6-THIOGUANINE, Metabolic Activation: S-9) “inactive; negative”; (Test System: E. COLI, Strain/Indicator: WP2 UVRA, Metabolic Activation: HAMSTER, LIVER, S-9, AROCLOR 1254, Method: STANDARD PLATE) “inactive; negative”; (Test System: E. COLI, Strain/Indicator: WP2 UVRA, Metabolic Activation: HAMSTER, LIVER, S-9, Method: STANDARD PLATE) “inactive; negative”; (Test System: E. COLI, Strain/Indicator: WP2 UVRA, Metabolic Activation: MOUSE, LIVER, S-9, AROCLOR 1254, Method: STANDARD PLATE) “inactive; negative”; (Test System: E. COLI, Strain/Indicator: WP2 UVRA, Metabolic Activation: MOUSE, LIVER, S-9, Method: STANDARD PLATE) “inactive; negative”. The mutagenic call is “inactive; negative” (Test System: E. COLI, Strain/Indicator: WP2 UVRA, Metabolic Activation: NONE, Method: STANDARD PLATE); “inactive; negative” (Test System: E. COLI, Strain/Indicator: WP2 UVRA, Metabolic Activation: RAT, LIVER, S-9, AROCLOR 1254, Method: STANDARD PLATE); “inactive; negative” (Test System: E. COLI, Strain/Indicator: WP2 UVRA, Metabolic Activation: RAT, LIVER, S-9, Method: STANDARD PLATE); “active; positive” (Test System: MOUSE LYMPHOMA, Strain/Indicator: L5178Y (TK+/TK-), Metabolic Activation: NONE, Method: SUSPENSION/PLATE); “active; positive” (Test System: MOUSE LYMPHOMA, Strain/Indicator: L5178Y (TK+/TK-), Metabolic Activation: RAT, LIVER, S-9, AROCLOR 1254, Method: SUSPENSION/PLATE).

In the case of `CC(C)Nc1nc(Cl)nc(NC(C)C)n1`, the mutagenic call is “inactive; negative” under setting [6]; “inactive; negative” under setting [7]; “inactive; negative” (Test System: AMES SALMONELLA TYPHIMURIUM, Strain/Indicator: TA97A, Metabolic Activation: NONE, Method: STANDARD PLATE); “inactive; negative” (Test System: AMES SALMONELLA TYPHIMURIUM, Strain/Indicator: TA97A, Metabolic Activation: RAT, LIVER, S-9, AROCLOR 1254, Method: STANDARD PLATE); “inactive; negative” under setting [8]; “inactive; negative” under setting [9]. The mutagenic call is “inactive; negative” under setting [10]; “inactive; negative” under setting [11]; “inactive; negative” (Test System: AMES SALMONELLA TYPHIMURIUM, Strain/Indicator: TA102, Metabolic Activation: NONE, Method: STANDARD PLATE); “inactive; negative” (Test System: AMES SALMONELLA TYPHIMURIUM, Strain/Indicator: TA102, Metabolic Activation: RAT, LIVER, S-9, AROCLOR 1254, Method: STANDARD PLATE); “inactive; negative” (Test System: AMES SALMONELLA TYPHIMURIUM, Strain/Indicator: TA1535, Metabolic Activation: NONE, Method: STANDARD PLATE); “inactive; negative” (Test System: AMES SALMONELLA TYPHIMURIUM, Strain/Indicator: TA1535, Metabolic Activation: RAT, LIVER, S-9, AROCLOR 1254, Method: STANDARD PLATE). Moreover, the mutagenic call (Test System: AMES SALMONELLA TYPHIMURIUM, Strain/Indicator: TA1537, Metabolic Activation: NONE, Method: STANDARD PLATE) was “inactive; negative”; the mutagenic call (Test System: AMES SALMONELLA TYPHIMURIUM, Strain/Indicator: TA1537, Metabolic Activation: RAT, LIVER, S-9, AROCLOR 1254, Method: STANDARD PLATE) is “inactive; negative”; the mutagenic call (Test System: AMES SALMONELLA TYPHIMURIUM, Strain/Indicator: TA1538, Metabolic Activation: NONE, Method: STANDARD PLATE) is “inactive; negative”; the mutagenic call (Test System: AMES SALMONELLA TYPHIMURIUM, Strain/Indicator: TA1538, Metabolic Activation: RAT, LIVER, S-9, AROCLOR 1254, Method: STANDARD PLATE) is “inactive; negative”.

Turning to `Nc1nc(N)c2nc(-c3ccccc3)c(N)nc2n1`, the mutagenic call is “inactive; negative” (Test System: AMES SALMONELLA TYPHIMURIUM, Strain/Indicator: TA98, Metabolic Activation: HAMSTER, LIVER, S-9, AROCLOR 1254 (10%), Method: PREINCUBATION); “inactive; negative” under setting [5]; “inactive; negative” (Test System: AMES SALMONELLA TYPHIMURIUM, Strain/Indicator: TA98, Metabolic Activation: RAT, LIVER, S-9, AROCLOR 1254 (10%), Method: PREINCUBATION); “inactive; negative” (Test System: AMES SALMONELLA TYPHIMURIUM, Strain/Indicator: TA100, Metabolic Activation: HAMSTER, LIVER, S-9, AROCLOR 1254 (10%), Method: PREINCUBATION); “inactive; negative” under setting [2]; “inactive; negative” (Test System: AMES SALMONELLA TYPHIMURIUM, Strain/Indicator: TA100, Metabolic Activation: RAT, LIVER, S-9, AROCLOR 1254 (10%), Method: PREINCUBATION). Also, the mutagenic call was “inactive; negative” (Test System: AMES SALMONELLA TYPHIMURIUM, Strain/Indicator: TA1535, Metabolic Activation: HAMSTER, LIVER, S-9, AROCLOR 1254 (10%), Method: PREINCUBATION); “inactive; negative” under setting [4]; “inactive; negative” (Test System: AMES SALMONELLA TYPHIMURIUM, Strain/Indicator: TA1535, Metabolic Activation: RAT, LIVER, S-9, AROCLOR 1254 (10%), Method: PREINCUBATION); “inactive; negative” (Test System: AMES SALMONELLA TYPHIMURIUM, Strain/Indicator: TA1537, Metabolic Activation: HAMSTER, LIVER, S-9, AROCLOR 1254 (10%), Method: PREINCUBATION); “inactive; negative” (Test System: AMES SALMONELLA TYPHIMURIUM, Strain/Indicator: TA1537, Metabolic Activation: NONE, Method: PREINCUBATION); “inactive; negative” (Test System: AMES SALMONELLA TYPHIMURIUM, Strain/Indicator: TA1537, Metabolic Activation: RAT, LIVER, S-9, AROCLOR 1254 (10%), Method: PREINCUBATION).

For `Nc1ncnc2nc[nH]c12`, the mutagenic call runs as follows: under setting [6], “inactive; negative”; under setting [7], “inactive; negative”; under setting [8], “inactive; negative”; under setting [9], “active; positive”; under setting [10], “inactive; negative”; under setting [11], “inactive; negative”.
